How the values were obtained:
[1] = target: T1, β-cardiac myosin (Homo sapiens, UniProt P12883); assay: NADH-linked actin-activated ATPase assay with purified recombinant S1; assay type: biochemical
T1 construct: gene MYH7; with actin (porcine ventricles); endogenous C2C12 light chains
Description: NADH-linked actin-activated ATPase assay with purified recombinant S1 on β-cardiac myosin | we measured the IC50 value for β-cardiac myosin S1.

[2] = target: T2, Myh7b (Homo sapiens, UniProt A7E2Y1); assay: as above; assay type: biochemical
T2 construct: with actin (porcine ventricles); endogenous C2C12 light chains
T2 sequence (A7E2Y1 43-892): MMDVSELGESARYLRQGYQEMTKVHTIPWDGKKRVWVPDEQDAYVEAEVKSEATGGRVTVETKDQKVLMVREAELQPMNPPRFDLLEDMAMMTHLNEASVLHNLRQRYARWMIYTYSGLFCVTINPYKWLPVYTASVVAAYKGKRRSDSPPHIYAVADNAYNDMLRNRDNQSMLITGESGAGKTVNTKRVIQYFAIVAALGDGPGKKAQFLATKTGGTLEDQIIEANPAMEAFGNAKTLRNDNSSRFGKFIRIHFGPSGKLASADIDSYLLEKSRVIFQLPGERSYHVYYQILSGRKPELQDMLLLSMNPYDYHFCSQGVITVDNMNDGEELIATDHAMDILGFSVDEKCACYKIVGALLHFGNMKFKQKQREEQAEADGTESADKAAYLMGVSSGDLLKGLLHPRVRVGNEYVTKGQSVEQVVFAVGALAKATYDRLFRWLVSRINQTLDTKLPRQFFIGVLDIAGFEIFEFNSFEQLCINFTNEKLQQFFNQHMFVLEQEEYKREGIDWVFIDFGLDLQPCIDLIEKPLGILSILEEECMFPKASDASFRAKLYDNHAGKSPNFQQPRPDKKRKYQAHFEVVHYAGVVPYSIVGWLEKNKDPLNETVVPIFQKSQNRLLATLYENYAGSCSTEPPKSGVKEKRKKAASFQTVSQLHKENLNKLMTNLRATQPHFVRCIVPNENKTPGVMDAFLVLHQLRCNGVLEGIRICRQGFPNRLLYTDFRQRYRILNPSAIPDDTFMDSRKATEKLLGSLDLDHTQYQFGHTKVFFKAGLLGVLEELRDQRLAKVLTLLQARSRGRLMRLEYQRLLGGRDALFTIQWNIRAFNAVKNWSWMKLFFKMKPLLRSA

T1 sequence (P12883 1-842): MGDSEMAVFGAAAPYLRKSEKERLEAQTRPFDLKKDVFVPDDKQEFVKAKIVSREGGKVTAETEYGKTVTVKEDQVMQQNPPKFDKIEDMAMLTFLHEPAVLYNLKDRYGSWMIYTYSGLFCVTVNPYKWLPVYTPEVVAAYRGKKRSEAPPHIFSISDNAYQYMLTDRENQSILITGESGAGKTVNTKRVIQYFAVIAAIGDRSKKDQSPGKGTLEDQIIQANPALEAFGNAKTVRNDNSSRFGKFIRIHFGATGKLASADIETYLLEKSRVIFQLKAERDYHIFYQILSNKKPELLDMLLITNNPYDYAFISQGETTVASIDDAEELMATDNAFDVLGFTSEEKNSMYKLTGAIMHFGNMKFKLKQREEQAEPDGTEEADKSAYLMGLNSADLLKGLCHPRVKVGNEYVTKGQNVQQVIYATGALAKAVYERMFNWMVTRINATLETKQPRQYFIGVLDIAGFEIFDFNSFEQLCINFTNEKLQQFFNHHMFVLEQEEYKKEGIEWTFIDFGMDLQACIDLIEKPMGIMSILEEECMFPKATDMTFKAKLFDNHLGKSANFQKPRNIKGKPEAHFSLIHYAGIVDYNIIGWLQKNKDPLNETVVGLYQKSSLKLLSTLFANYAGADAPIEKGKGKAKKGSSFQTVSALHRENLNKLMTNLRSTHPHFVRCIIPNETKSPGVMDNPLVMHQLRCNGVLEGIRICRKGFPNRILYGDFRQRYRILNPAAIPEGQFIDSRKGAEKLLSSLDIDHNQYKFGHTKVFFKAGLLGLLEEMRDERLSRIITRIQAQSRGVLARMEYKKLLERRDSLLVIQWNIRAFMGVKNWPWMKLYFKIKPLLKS

IC50 [1]: 1.12 ± 0.29 µM
IC50 [2]: 0.36 ± 0.08 µM
SMILES: Cc1ccc2c(c1)C(=O)[C@]1(O)CCN(c3ccccc3)C1=N2 [Blebbistatin]
